Experimental data reported in patent US6864046B1, “Method for collecting and preserving semen” (Texas Tech University, priority 2000, dated 2005).

Test system: spermatozoa
Settings: calcium compound substituted for calcium chloride in Ringer's lactate; culturing 1-24 hr

| Compound | semen function (percent motility, FIGS. 5a and 5b) |
| --- | --- |
| O=C([O-])[O-].[Ca+2] [calcium carbonate] | maintained best |
| calcium gluconate | maintained best |
| calcium phosphate | maintained best |
